IC50 data for 16 compounds are collected here from ChEMBL document CHEMBL3779857, “Aspidofractinine and Eburnane Alkaloids from a North Borneo Kopsia. Ring-Contracted, Additional Ring-Fused, and Paucidactine-Type Aspidofractinine Alkaloids from K. pauciflora” (J Nat Prod, 2016).

pIC50: −log10 of the molar value.

As a reminder, the IC50 is the point on the concentration scale where inhibition reaches its midpoint. As a reminder, the pIC50 is the negative decadic logarithm of the IC50, by convention in mol/L.

What all share (format): functional, cell-based
Test [1] can be described thus: Cytotoxicity against human KB/VJ300 cells assessed as cell viability after 72 hrs by MTT assay. Particulars: KB/VJ300, 72 h.
Another test relates to KB. In words: Cytotoxicity against human vincristine-sensitive KB cells assessed as cell viability after 72 hrs by MTT assay. In general terms: Tetrazolium dyes change colour on reduction, which living cells bring about.
Test [2] is described as follows: Cytotoxicity against human PC3 cells assessed as cell viability after 72 hrs by MTT assay. Particulars: PC-3, 72 h.
Test [3] in a line: Cytotoxicity against human KB/VJ300 cells assessed as cell viability after 72 hrs by MTT assay in presence of 0.121 uM vincristine. To be noted: KB/VJ300, 72 h.
The next test concerns A549. Kind of test: Cytotoxicity against human A549 cells assessed as cell viability after 72 hrs by MTT assay. To be noted: A549, 72 h.
The nature of test [4]: Cytotoxicity against human HCT116 cells assessed as cell viability after 72 hrs by MTT assay. To be noted: HCT-116, 72 h.
A further test has as its system MCF7. Kind of test: Cytotoxicity against human MCF7 cells assessed as cell viability after 72 hrs by MTT assay. To be noted: MCF7, 72 h.

As to `C[C@H]1O[C@@H]2C[C@]13CCCN1CC[C@]4(C(=O)c5ccccc5N24)[C@H]13`, the IC50 (in test [1]; with KB) was > 25 µg/mL in each case.
Turning to `CC[C@@]12CCCN3CCc4c(n(c5ccccc45)[C@H](c4ccc5c(c4)N[C@@]46CC[C@]7(CCCN8CC[C@]54[C@@H]87)C[C@H]6C(=O)OC)C1)[C@H]32`, the pIC50 in test [2] was 4.94; in test [1] it was 4.43; in test [3] it was 5.11; in the test with A549, 4.48; with KB, 4.62; in test [4], 4.91. Further, in the test with MCF7, the pIC50 was 4.80.
Regarding `COC(=O)[C@@H]1C[C@]23CC[C@@]14Nc1ccccc1[C@@]41CCN(C4=CC(=O)C[C@H]4C2)[C@@H]31`, the IC50 (in test [1]; in the test on KB) was > 25 µg/mL in each case.
For `C[C@@H](O)[C@]12C=Cn3c4c(c5ccccc53)CCN(CCC1)[C@@H]42`, the half-maximal inhibitory concentration (IC50) (in test [1]; in the test on KB) was > 25 µg/mL in each case.
Consider `COC(=O)[C@@H]1C[C@@]23CCCN4CC[C@@]5(c6ccc([C@@H]7C[C@@]8([C@@H](C)O)CCCN9CCc%10c(n7c7ccccc%107)[C@H]98)cc6N[C@]15CC2)[C@@H]43`, for which the pIC50 was 4.82 in test [2]; 4.87 in test [3]; 4.54 in the test on KB; 4.60 in test [4]; 4.65 in the test on MCF7. Also, the IC50 (in test [1]; in the test on A549) was > 25 µg/mL each time.
Turning to `CC(=O)[C@@]12CCCN3CCc4c(n(c5ccccc45)[C@@H](O)C1)[C@H]32`, the half-inhibitory concentration (IC50) (in test [1]; in the test on KB) was > 25 µg/mL throughout.
Turning to `CC[C@@]12CCCN3CCc4c(n(c5ccccc45)[C@H](c4ccc5c(c4)N[C@@]46CC[C@]7(CCCN8CC[C@]54[C@@H]87)C[C@H]6C(=O)O)C1)[C@H]32`, the IC50 (in test [2]; in test [1]; in test [3]; in the test with A549; in the test on KB; in test [4]) was > 25 µg/mL each time. Further, the IC50 in the test with MCF7 was > 25 µg/mL.
Take `COC(=O)[C@@H]1C[C@]23CC[C@@]14Nc1ccccc1[C@@]41CCN(C=C(C=O)C2)[C@@H]31`: the IC50 (in test [1]; with KB) was > 25 µg/mL throughout.
Consider `COC(=O)N1c2c(OC)cccc2[C@]23C4C(=O)[C@H]5C[C@@]6(CCCN(C4=O)[C@@H]62)CC[C@]513` (stereo partly specified), for which the IC50 (in test [1]; in the test with KB) was > 25 µg/mL each time.
As for `COC(=O)[C@@H]1C[C@]23CC[C@@]14Nc1ccccc1[C@@]41CCN(C(=O)C2)[C@@H]31`, the IC50 (in test [1]; in the test on KB) was > 25 µg/mL in each case.
In the case of `O=C1OC2C(=O)N3CCC[C@]45CC[C@@]6(Nc7ccccc7[C@@]26[C@@H]34)[C@@H]1C5` (stereo partly specified), the IC50 (in test [1]; in the test on KB) was > 25 µg/mL throughout.
Consider `COC(=O)N1c2c(ccc3c2OCO3)[C@@]23C4CN5CCC[C@]6(CC[C@]12[C@](O)(C6)OC4=O)[C@H]53` (stereo partly specified), for which the IC50 (in test [1]; with KB) was > 25 µg/mL each time.
Regarding `O=C1OC2CN3CCC[C@]45CC[C@@]6(Nc7ccccc7[C@@]26[C@@H]34)[C@@H]1C5` (stereo partly specified), the IC50 (in test [1]; with KB) was > 25 µg/mL each time.
As to `CCO[C@H]1C[C@@]2([C@@H](C)O)CCCN3CCc4c(n1c1ccccc41)[C@H]32`, the IC50 (in test [1]; in the test with KB) was > 25 µg/mL in each case.
For `COc1ccc(CCN(C)CCCC(C#N)(c2ccc(OC)c(OC)c2)C(C)C)cc1OC` (stereo unspecified), the IC50 with KB was > 25 µg/mL.
Regarding `CC[C@]1(O)C[C@H]2CN(CCc3c([nH]c4ccccc34)[C@@](C(=O)OC)(c3cc4c(cc3OC)N(C=O)[C@H]3[C@@](O)(C(=O)OC)[C@H](OC(C)=O)[C@]5(CC)C=CCN6CC[C@]43[C@@H]65)C2)C1` [VINCRISTINE], the results for the pIC50 (in test [1]; in the test with KB) were 5.12 and 8.48, respectively.
